Assay [1] has as its system human umbilical vein endothelial cells (HUVEC). In words: HUVEC+VEGF Proliferation Assay. In kind it is cell-based. Conditions: VEGF-stimulated proliferation, final VEGF 6 ng/mL, 72 hours, MTT dye reduction. How it is done:
This assay determines the ability of a test compound to inhibit the growth factor-stimulated proliferation of human umbilical vein endothelial cells (“HUVEC”). HUVEC cells (passage 3-4, Clonetics, Corp.) were thawed into EGM2 culture medium (Clonetics Corp) in T75 flasks. Fresh EGM2 medium was added to the flasks 24 hours later. Four or five days later, cells were exposed to another culture medium (F12K medium supplemented with 10% fetal bovine serum (FBS), […] endothelial cell growth supplement (ECGS), and 0.1 mg/mL heparin). Exponentially-growing HUVEC cells were used in experiments thereafter. Ten to twelve thousand HUVEC cells were plated in 96-well dishes in […] of rich, culture medium (described above). The cells were allowed to attach for 24 hours in this medium. The medium was then removed by aspiration and […] of starvation media (F12K+1% FBS) was added to each well. After 24 hours, […] of test agent dissolved in 1% DMSO in starvation medium or this vehicle alone was added into each treatment well; the final DMSO concentration was 0.1%. One hour later, […] of VEGF (30 ng/mL) in starvation media was added to all wells except those containing untreated controls; the final VEGF concentration was 6 ng/mL. Cellular proliferation was quantified 72 hours later by MTT dye reduction, at which time cells were exposed for 4 hours MTT (Promega Corp.). Dye reduction was stopped by addition of a stop solution (Promega Corp.) and absorbance at 595 nm was determined on a 96-well spectrophotometer plate reader.

Assay [2] concerns the target T1, human vascular endothelial growth factor receptor 2 (VEGF-R2) (Homo sapiens, UniProt P35968, DEL940-989/E990V).
T1 construct: VEGF-R2D50 contains residues 806-939 and 990-1171; made in house; host or cells: baculovirus/insect cell system
The assay can be described thus: VEGF-R2 coupled spectrophotometric assay (FLVK). In kind it is biochemical. Particulars: unphosphorylated VEGF-R2D50 (FLVK). An excerpt:
This construct determines the ability of a test compound to inhibit tyrosine kinase activity. A construct (VEGF-R2D50) of the cytosolic domain of human vascular endothelial growth factor receptor 2 (VEGF-R2) lacking the 50 central residues of the 68 residues of the kinase insert domain was expressed in a baculovirus/insect cell system. Of the 1356 residues of full-length VEGF-R2, VEGF-R2D50 contains residues 806-939 and 990-1171, and also one point mutation (E990V) within the kinase insert domain relative to wild-type VEGF-R2. Autophosphorylation of the purified construct was performed by incubation of the enzyme at a concentration of […] in the presence of 3 mM ATP and 40 mM MgCl2 in 100 mM HEPES, pH 7.5, containing 5% glycerol and 5 mM DTT, at 4° C. for 2 h. […] See Parast et al., Biochemistry, 37, 16788-16801 (1998).
The production of ADP from ATP that accompanies phosphoryl transfer was coupled to oxidation of NADH using phosphoenolpyruvate (PEP) and a system having pyruvate kinase (PK) and lactic dehydrogenase (LDH). The oxidation of NADH was monitored by following the decrease of absorbance at 340 nm (e340=6.22 cm^−1 mM^−1) using a Beckman DU 650 spectrophotometer. Assay conditions for phosphorylated VEGF-R2D50 (indicated as FLVK-P in the tables below) were the following: 1 mM PEP; […]; 50 units of LDH/mL; 20 units of PK/mL; 5 mM DTT; 5.1 mM poly(E4Y1); 1 mM ATP; and 25 mM MgCl2 in 200 mM HEPES, pH 7.5. Assay conditions for unphosphorylated VEGF-R2D50 (indicated as FLVK in the tables) were the following: 1 mM PEP; […]; 50 units of LDH/mL; 20 units of PK/mL; 5 mM DTT; 20 mM poly(E4Y1); 3 mM ATP; and 60 mM MgCl2 and 2 mM MnCl2 in 200 mM HEPES, pH 7.5. Assays were initiated with 5 to 40 nM of enzyme. Ki values were determined by measuring enzyme activity in the presence of varying concentrations of test compounds. The percent inhibition at 50 nm (% inhibition @ 50 nm) was determined by linear least-squares regression analysis of absorbance as a function of time. The binding inhibitions were fitted to equation as described by Morrison. The data were analyzed using Enzyme Kinetic and Kaleidagraph software.

pIC50, pKi: −log10 of the molar value. Bounds are passed on as bounds.

T1 sequence (P35968 with tags, fused parts or gaps DEL940-989/E990V limits assumed): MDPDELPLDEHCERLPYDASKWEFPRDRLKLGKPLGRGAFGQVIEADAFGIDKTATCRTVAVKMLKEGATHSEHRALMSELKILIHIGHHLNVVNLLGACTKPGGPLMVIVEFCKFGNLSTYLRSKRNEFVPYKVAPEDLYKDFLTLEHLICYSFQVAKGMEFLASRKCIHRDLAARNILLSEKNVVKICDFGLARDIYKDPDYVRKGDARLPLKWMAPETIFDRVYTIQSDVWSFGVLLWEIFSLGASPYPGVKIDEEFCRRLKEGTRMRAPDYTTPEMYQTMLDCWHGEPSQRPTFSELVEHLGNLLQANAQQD

On to `COc1ccc2c(Oc3ccc4c(C(=O)NC(C)C)cccc4c3)ccnc2c1` [Example 50, 6-(7-Methoxy-quinolin-4-yloxy)-naphthalene-1-carboxylic Acid Isopropylamide], for which the pIC50 (in general, the IC50 on a negative log10 scale, so that one unit is a factor of ten) in assay [1] is below 8.00. In assay [2], the pKi (commonly the negative decadic logarithm of the Ki, by convention in mol/L) was 8.00 to 9.00.

In the case of `CNC(=O)c1cccc2cc(Oc3ccnc4cc(OCCN5CCOCC5)ccc34)ccc12` [Example 45, 6-[7-(2-Morpholin-4-yl-ethoxy)-quinolin-4-yloxy]-naphthalene-1-carboxylic Acid Methylamide], in assay [1], the negative logarithm of the IC50 (pIC50) is above 9.00. Further, the negative logarithm of the Ki (pKi) in assay [2] is above 9.00.

With `CNC(=O)c1cccc2cc(Oc3ccnc4cc(C(=O)N(C)CCCN(C)C)sc34)ccc12` [Example 7, N-[3-(Dimethylamino)propyl]-N-methyl-7-({5-[(methylamino)carbonyl]-2-naphthyl}oxy)thieno[3,2-b]pyridine-2-carboxamide], in assay [1], the negative logarithm of the IC50 (pIC50) was below 8.00. In assay [2], the negative logarithm of the Ki (pKi) was 8.00 to 9.00.

In assay [2], `CNCC1CCN(C(=O)c2cc3nccc(Oc4ccc5c(C(=O)NC)cccc5c4)c3s2)C1` (centres unmarked) [Example 10, N-Methyl-6-{[2-({3-[(methylamino)methyl]pyrrolidin-1-yl}carbonyl)thieno[3,2-b]pyridin-7-yl]oxy}-1-naphthamide] had a pKi above 9.00.

As for `CCCCNC(=O)c1cccc2cc(Oc3ccnc4cc(OC)ccc34)ccc12` [Example 47, 6-(7-Methoxy-quinolin-4-yloxy)-naphthalene-1-carboxylic Acid Butylamide], the pIC50 in assay [1] was below 8.00.

In assay [2], `CN(C)CCNC(=O)c1cccc2cc(Oc3ccnc4ccsc34)ccc12` [Example 41, 6-(Thieno[3,2-b]pyridin-7-yloxy)-naphthalene-1-carboxylic acid (2-dimethylamino-ethyl)-amide] had a pKi below 8.00.

`CCCCNC(=O)c1cccc2cc(Oc3ccnc4cc(O)ccc34)ccc12` [Example 48, 6-(7-Hydroxy-quinolin-4-yloxy)-naphthalene-1-carboxylic Acid Butylamide]: the pIC50 in assay [1] is 8.00 to 9.00.

On to `CNC(=O)c1cccc2c(F)c(Oc3ccnc4cc(C(=O)N(C)C)sc34)ccc12` [Example 2, 7-({1-Fluoro-5-[(methylamino)carbonyl]-2-naphthyl}oxy)-N,N-dimethylthieno[3,2-b]pyridine-2-carboxamide], for which the negative-log IC50 (pIC50) in assay [1] was above 9.00.

Turning to `CN(C)[C@@H]1CCN(C(=O)c2cc3nccc(Oc4ccc5c(C(=O)NC6CC6)cccc5c4)c3s2)C1` [Example 9, N-Cyclopropyl-6-[(2-{[(3R)-3-(dimethylamino)pyrrolidin-1-yl]carbonyl}thieno[3,2-b]pyridin-7-yl)oxy]-1-naphthamide], the negative-log Ki (pKi) in assay [2] was above 9.00.

`O=C(NCCCN1CCCCC1)c1cccc2cc(Oc3ccnc4ccsc34)ccc12` [Example 36, 6-(Thieno[3,2-b]pyridin-7-yloxy)-naphthalene-1-carboxylic acid (3-piperidin-1-yl-propyl)-amide] gave a pKi in assay [2] below 8.00.

In assay [2], `O=C(NCCN1CCOCC1)c1cccc2cc(Oc3ncnc4ccsc34)ccc12` [Example 52, N-(2-Morpholin-4-ylethyl)-6-(thieno[3,2-d]pyrimidin-4-yloxy)-1-naphthamide] gave a negative logarithm of the Ki (pKi) below 8.00.

Turning to `COCCNC(=O)c1cccc2cc(Oc3ccnc4cc(C(=O)N5CC[C@@H](N(C)C)C5)sc34)ccc12` [Example 11, 6-[(2-{[(3R)-3-(Dimethylamino)pyrrolidin-1-yl]carbonyl}thieno[3,2-b]pyridin-7-yl)oxy]-N-(2-methoxyethyl)-1-naphthamide], the negative-log Ki (pKi) in assay [2] is 8.00 to 9.00.

In assay [2], `CNC(=O)c1cccc2cc(Oc3ccnc4cc(O)ccc34)ccc12` [Example 44, 6-(7-Hydroxy-quinolin-4-yloxy)-naphthalene-1-carboxylic Acid Methylamide] had a pKi below 8.00.

`O=C(NCCCN1CCCC1)c1cccc2cc(Oc3ccnc4ccsc34)ccc12` [Example 37, 6-(Thieno[3,2-b]pyridin-7-yloxy)-naphthalene-1-carboxylic acid (3-pyrrolidin-1-yl-propyl)-amide] gave a negative-log Ki (pKi) in assay [2] below 8.00.

(Values after patent publication US20050070508A1, “Napthalene carboxamides and their derivatives useful as new anti-angiogenic agents” (AGOURON PHARMACEUTICALS, INC., priority 2003, published 2005).)
